Data as given in patent US9464120B2, “Compositions for treatment of celiac disease” (ImmusanT, Inc., priority 2008, dated 2016).
Blank lines part the entries; values can stand above or below the molecule they belong to. Square brackets hold non-standard residues; d marks the D form. Peptide text beside a SMILES is read from it. pGlu = O=C1CC[C@@H](C(=O)O)N1

Legend:
[1] = Pharmacokinetics after bolus intradermal injection in an adult rat; type: in vivo; details: rat, in vivo, 0.9 mg; for half-life: T1/2 half life
Method: To improve their chemical stability and increase resistance to exopeptidases, peptides were synthesised as acetate salts of “capped” N-pyroglutamate, C-amide: NPL001 (SEQ ID NO:228), NPL002 (SEQ ID NO:229) and NPL003 (SEQ ID NO:230) 15mers or 16mers with glutamate at sites predicted to be deamidated by tTG. Indeed, capping extended the half-lives of peptides from 10-12 minutes for free peptides: NPL033, NPL038, and NPL034 (SEQ ID NOs:13, 320 and 321) after bolus intradermal injection of 0.9 mg in 0.1 ml in an adult rat to 26-28 minutes with N-pyroglutamate and C-amidation (SEQ ID NOs:228, 229 and 230) or 19-24 minutes with N-acetylation and C-amidation (SEQ ID NOs:231, 232, and 233), (see Table 4).

[2] = test system: gluten peptide-specific T cells in PBMC from HLA-DQ2+ celiac disease donors; assay: IFNγ ELISpot of PBMC collected on day 6 after oral gluten challenge; type: cell-based, human; details: for requirement for deamidation for T cell stimulation / dominance according to the grain consumed: second round libraries; for donors with IFNγ ELISpot response: 9 HLA DQ2 celiac disease donors, PBMC day 6 after wheat gluten challenge, 17mer and 33mer at 5 μM; for relative T-cell stimulatory activity: PBMC after wheat challenge, tTG pre-treated or glutamate substituted; for activity relative to α-gliadin p57-73 QE65: pre-treated with tTG or with glutamate at position 9, 25 μg/ml, mean±SEM, n=5 donors; for dominance according to the grain consumed: wheat, barley or rye gluten challenge
[3] = test system: gluten peptide-specific T cells in PBMC from HLA-DQ2+ celiac disease donors; details: day-6 PBMC, cited from earlier work

half-life [1]: 10 to 12 min
Molecule: CC[C@H](C)[C@H](NC(=O)[C@@H]1CCCN1C(=O)[C@H](CCC(N)=O)NC(=O)[C@H](CCC(=O)O)NC(=O)[C@@H]1CCCN1C(=O)[C@@H](N)Cc1ccccc1)C(=O)N1CCC[C@H]1C(=O)N[C@@H](CCC(=O)O)C(=O)N[C@@H](CCC(N)=O)C(=O)N1CCC[C@H]1C(=O)N[C@@H](CCC(N)=O)C(=O)N1CCC[C@H]1C(=O)N[C@@H](Cc1ccc(O)cc1)C(=O)N1CCC[C@H]1C(=O)N[C@@H](CCC(N)=O)C(=O)N[C@@H](CCC(N)=O)C(=O)O [NPL034, FPEQPIPEQPQPYPQQ] (H-FPEQPIPEQPQPYPQQ-OH)

AUC area under the curve (bioavailability) [1]: AUC 2618
half-life [1]: 10 to 12 min
Molecule: CC(C)C[C@H](NC(=O)[C@H](CCC(=O)O)NC(=O)[C@@H]1CCCN1C(=O)[C@H](CCC(N)=O)NC(=O)[C@@H]1CCCN1C(=O)[C@H](Cc1ccccc1)NC(=O)[C@@H]1CCCN1C(=O)[C@H](CCC(N)=O)NC(=O)[C@@H](N)CC(C)C)C(=O)N1CCC[C@H]1C(=O)N[C@@H](Cc1ccc(O)cc1)C(=O)N1CCC[C@H]1C(=O)N[C@@H](CCC(N)=O)C(=O)N1CCC[C@H]1C(=O)N[C@@H](CCC(N)=O)C(=O)O [NPL033, LQPFPQPELPYPQPQ] (H-LQPFPQPELPYPQPQ-OH)

Molecule: PGQGQSGYYPTSPQQS (W24)
requirement for deamidation for T cell stimulation [2]: Exceptions to the requirement for deamidation

Molecule: QLQPFPQPELPYPQPQL (variant of alpha-gliadin p57-73 QE65) [SEQ ID NO:46]
donors with IFNγ ELISpot response [2]: 7 donors

AUC area under the curve (bioavailability) [1]: AUC 22393
T1/2 half life [1]: T1/2 13.2 minutes
half-life [1]: 10 to 12 min
Molecule: NC(=O)CC[C@H](NC(=O)[C@@H]1CCCN1)C(=O)N[C@@H](CCC(N)=O)C(=O)N1CCC[C@H]1C(=O)N[C@@H](Cc1ccccc1)C(=O)N1CCC[C@H]1C(=O)N[C@@H](CCC(N)=O)C(=O)N1CCC[C@H]1C(=O)N[C@@H](CCC(=O)O)C(=O)N[C@@H](CCC(N)=O)C(=O)N1CCC[C@H]1C(=O)N[C@@H](Cc1ccccc1)C(=O)N1CCC[C@H]1C(=O)N[C@@H](Cc1c[nH]c2ccccc12)C(=O)N[C@@H](CCC(N)=O)C(=O)N1CCC[C@H]1C(=O)O [NPL038, PQQPFPQPEQPFPWQP] (H-PQQPFPQPEQPFPWQP-OH)

Molecule: 15mer encompassing deamidated DQ2-γ-IV: deamidated 15mer encompassing the epitope DQ2-γ-IV SQPEQEFPQ reported for intestinal T cell clones [reference compound]
donors with IFNγ ELISpot response [2]: One

Molecule: PQPQPFLPELPYPQPQS (gluten derived peptide) [SEQ ID NO:26]
relative T-cell stimulatory activity [2]: almost as active as 17mers encompassing DQ2-α-II

Molecule: PQPQPFLPQLPYPQPQS (gluten derived peptide) [W09]
relative T-cell stimulatory activity [2]: almost as active as 17mers encompassing DQ2-α-II

Molecule: QGQPGYYPTSPQQIGQ (W22)
requirement for deamidation for T cell stimulation [2]: Exceptions to the requirement for deamidation

Molecule: PQQPFPQPELPFPQQSE (deamidated AAG17702 (141-157)) [SEQ ID NO:29]
activity relative to α-gliadin p57-73 QE65 [2]: 32±6%

Molecule: QYEVIRSLVRTLPNM (QYEVIRSLVLRTLPNM; W36)
requirement for deamidation for T cell stimulation [2]: Exceptions to the requirement for deamidation

half-life [1]: 26 to 28 min
Molecule: CC[C@H](C)[C@H](NC(=O)[C@@H]1CCCN1C(=O)[C@H](CCC(N)=O)NC(=O)[C@H](CCC(=O)O)NC(=O)[C@@H]1CCCN1C(=O)[C@@H]1CCC(=O)N1)C(=O)N1CCC[C@H]1C(=O)N[C@@H](CCC(=O)O)C(=O)N[C@@H](CCC(N)=O)C(=O)N1CCC[C@H]1C(=O)N[C@@H](CCC(N)=O)C(=O)N1CCC[C@H]1C(=O)N[C@@H](Cc1ccc(O)cc1)C(=O)N1CCC[C@H]1C(=O)N[C@@H](CCC(N)=O)C(=O)N[C@@H](CCC(N)=O)C(N)=O [NPL003, pyroEPEQPIPEQPQPYPQQ-amide] ([pGlu]PEQPIPEQPQPYPQQ-NH2)

Molecule: QPFPQQPEQIIPQQ (gluten derived peptide) [SEQ ID NO:323]
dominance according to the grain consumed [2]: only after rye gluten challenge

AUC area under the curve (bioavailability) [1]: AUC 8206
T1/2 half life [1]: T1/2 12.5 minutes
half-life [1]: 19 to 24 min
Molecule: CC[C@H](C)[C@H](NC(=O)[C@@H]1CCCN1C(=O)[C@H](CCC(N)=O)NC(=O)[C@H](CCC(=O)O)NC(=O)[C@@H]1CCCN1C(=O)[C@H](Cc1ccccc1)NC(C)=O)C(=O)N1CCC[C@H]1C(=O)N[C@@H](CCC(=O)O)C(=O)N[C@@H](CCC(N)=O)C(=O)N1CCC[C@H]1C(=O)N[C@@H](CCC(N)=O)C(=O)N1CCC[C@H]1C(=O)N[C@@H](Cc1ccc(O)cc1)C(=O)N1CCC[C@H]1C(=O)N[C@@H](CCC(N)=O)C(=O)N[C@@H](CCC(N)=O)C(N)=O [NPL032, Ac-FPEQPIPEQPQPYPQQ-amide] (Ac-FPEQPIPEQPQPYPQQ-NH2)

Molecule: QGQQGYYPISPQQSGQ (W21)
requirement for deamidation for T cell stimulation [2]: Exceptions to the requirement for deamidation

Molecule: GQGQSGYYPTSPQQSG (W29)
requirement for deamidation for T cell stimulation [2]: Exceptions to the requirement for deamidation

Molecule: LQLQPFPQPELPYPQPELPYPQPELPYPQPQPF (deamidated alpha2-gliadin 56-88) [33mer, reference compound]
donors with IFNγ ELISpot response [2]: 7 donors

Molecule: QPQQPFPQPEQPFPWQP (Q3 E10 variant) [SEQ ID NO:54]
relative T-cell stimulatory activity [2]: optimal immunogenicity

Molecule: PQQPFPQPQLPFPQQSE (AAG17702 (141-157))
activity relative to α-gliadin p57-73 QE65 [2]: 32±6%

Molecule: QLQPFPQPELPYPQPQP (gluten derived peptide) [SEQ ID NO:225]
dominance according to the grain consumed [2]: dominant only after wheat gluten challenge

AUC area under the curve (bioavailability) [1]: AUC 43474
T1/2 half life [1]: T1/2 19.4 minutes
half-life [1]: 19 to 24 min
Molecule: CC(=O)N[C@@H](CCC(N)=O)C(=O)N[C@@H](CC(C)C)C(=O)N[C@@H](CCC(N)=O)C(=O)N1CCC[C@H]1C(=O)N[C@@H](Cc1ccccc1)C(=O)N1CCC[C@H]1C(=O)N[C@@H](CCC(N)=O)C(=O)N1CCC[C@H]1C(=O)N[C@@H](CCC(=O)O)C(=O)N[C@@H](CC(C)C)C(=O)N1CCC[C@H]1C(=O)N[C@@H](Cc1ccc(O)cc1)C(=O)N1CCC[C@H]1C(=O)N[C@@H](CCC(N)=O)C(=O)N1CCC[C@H]1C(=O)N[C@@H](CCC(N)=O)C(N)=O [NPL030, Ac-QLQPFPQPELPYPQPQ-amide] (Ac-QLQPFPQPELPYPQPQ-NH2)

AUC area under the curve (bioavailability) [1]: AUC 80263
T1/2 half life [1]: T1/2 22.9 minutes
half-life [1]: 19 to 24 min
Molecule: CC(=O)N[C@@H](CCC(N)=O)C(=O)N[C@@H](CCC(N)=O)C(=O)N1CCC[C@H]1C(=O)N[C@@H](Cc1ccccc1)C(=O)N1CCC[C@H]1C(=O)N[C@@H](CCC(N)=O)C(=O)N1CCC[C@H]1C(=O)N[C@@H](CCC(=O)O)C(=O)N[C@@H](CCC(N)=O)C(=O)N1CCC[C@H]1C(=O)N[C@@H](Cc1ccccc1)C(=O)N1CCC[C@H]1C(=O)N[C@@H](Cc1c[nH]c2ccccc12)C(=O)N[C@@H](CCC(N)=O)C(=O)N1CCC[C@H]1C(N)=O [NPL031, Ac-QQPFPQPEQPFPWQP-amide] (Ac-QQPFPQPEQPFPWQP-NH2)

Molecule: QLQPFPQPELPYPQPQS (alpha-gliadin p57-73 QE65) [α-gliadin p57-73 QE65]
IFNγ ELISpot response relative to tTG-treated gliadin in 3/17 donors ([3]; 3/17 donors): less than 5%
Median IFNγ ELISpot response as percentage of that to tTG-treated gliadin (500 μg/ml) ([3]; n=17, range 0-155%): 51%

Molecule: QPEQPFPQPEQPFPWQP (W03-E7)
relative T-cell stimulatory activity [2]: equivalent in bioactivity
dominance according to the grain consumed [2]: universal dominant T cell stimulatory peptide in gluten

AUC area under the curve (bioavailability) [1]: AUC 81514
T1/2 half life [1]: T1/2 27.18 minutes
half-life [1]: 26 to 28 min
Molecule: NC(=O)CC[C@H](NC(=O)[C@H](Cc1c[nH]c2ccccc12)NC(=O)[C@@H]1CCCN1C(=O)[C@H](Cc1ccccc1)NC(=O)[C@@H]1CCCN1C(=O)[C@H](CCC(N)=O)NC(=O)[C@H](CCC(=O)O)NC(=O)[C@@H]1CCCN1C(=O)[C@H](CCC(N)=O)NC(=O)[C@@H]1CCCN1C(=O)[C@H](Cc1ccccc1)NC(=O)[C@@H]1CCCN1C(=O)[C@H](CCC(N)=O)NC(=O)[C@@H]1CCC(=O)N1)C(=O)N1CCC[C@H]1C(N)=O [NPL002, pyroEQPFPQPEQPFPWQP-amide] ([pGlu]QPFPQPEQPFPWQP-NH2)
bioactivity after lysine-substitution of the central PQPEQPF sequence ([2]; 32 μg/ml, after wheat (n=7), barley (n=9) or rye challenge (n=10)): abolished the bioactivity
effect of anti-HLA-DQ / -DR preincubation on IFNγ ELISpot response ([2]; PBMC from HLA DQA1*05 DQB1*02 homozygotes and heterozygotes, data not shown): anti-HLA-DQ but not -DR abolished

Molecule: PQQPIPEQPQPYPQQP (B08-E7)
dominance according to the grain consumed [2]: only after barley gluten challenge
